Data published in ChEMBL document CHEMBL1201862, “PubChem BioAssay data set” (2004).
Calls of active or inactive are those of the source.

Assays:
[1] = target: T1, Endoribonuclease toxin MazF (Escherichia coli K-12, UniProt P0AE70); test: activation of MazEF endoribonuclease cleavage – biochemical, fluorescence, single-stranded RNA substrate, uHTS hits, dose response (AID 588481); type: functional
T1 sequence (P0AE70 whole entry): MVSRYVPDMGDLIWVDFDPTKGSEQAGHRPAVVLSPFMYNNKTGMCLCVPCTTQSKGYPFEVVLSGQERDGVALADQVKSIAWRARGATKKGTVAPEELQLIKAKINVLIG

[2] = target: UDP-galactopyranose mutase (Mycobacterium tuberculosis, UniProt P9WIQ1); test: Inhibitors of Mycobacterium tuberculosis UDP-galactopyranose mutase (UGM) enzyme Measured in Biochemical System Using Plate Reader - 2105-02_Inhibitor_Dose_CherryPick_Activity. [Related pubchem assays (depositor defined):AID504439]
Chain of UDP-galactopyranose mutase (P9WIQ1 whole entry): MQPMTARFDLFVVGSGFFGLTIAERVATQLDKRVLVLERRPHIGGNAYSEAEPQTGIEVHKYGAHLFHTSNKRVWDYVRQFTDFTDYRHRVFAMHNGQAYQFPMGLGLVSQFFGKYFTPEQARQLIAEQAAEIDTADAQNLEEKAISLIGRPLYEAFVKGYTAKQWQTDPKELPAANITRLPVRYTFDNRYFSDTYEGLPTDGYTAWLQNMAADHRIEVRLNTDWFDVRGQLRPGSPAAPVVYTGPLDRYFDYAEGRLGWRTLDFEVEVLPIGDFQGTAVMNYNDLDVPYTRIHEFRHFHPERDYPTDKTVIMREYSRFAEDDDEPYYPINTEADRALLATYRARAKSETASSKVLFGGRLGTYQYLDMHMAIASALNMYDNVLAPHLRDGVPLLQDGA

[3] = target: T1, Endoribonuclease toxin MazF; test: substrate-only fluorescence increase artefacts – biochemical, single-stranded RNase substrate, counter-screen for MazEF activator project, dose response (AID 588502); type: functional
Jurkat = test: SAR Analysis of small molecule inhibitors of […] specific antigen receptor-induced NF-kB activation in a Jurkat cell line using a luminescence assay - Set 3. [Related pubchem assays (depositor defined):AID435022, AID435025, AID465]; type: functional, cell-based; details: Homo sapiens
HEK293 [4] = test: SAR Analysis of small molecule inhibitors of B-cell specific antigen receptor-induced NF-kB activation in a HEK-293T cell line using a luminescence assay - Set 2. [Related pubchem assays (depositor defined):AID435022, AID435025, AID489021]; type: functional, cell-based; details: Homo sapiens
HEK293 [5] = test: HEK293T cell viability loss, resazurin readout – resazurin fluorescence, cytotoxicity control for NF-kB activator project, SAR follow-up (AID 493251); type: functional, cell-based; details: Homo sapiens
[6] = NIH-3T3 fibroblast cytotoxicity, dose response, cytotoxicity control, cell-based, fluorescence, Alamar Blue, secondary assay (AID 2327); type: functional;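 also: NIH-3T3 mouse fibroblasts cultured with fluconazole at 8 µg/mL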
[7] = target: E3 ubiquitin-protein ligase Mdm2 (Homo sapiens, UniProt Q00987); test: MDM2-luc reporter signal enhancers, multi-concentration potency testing, MDM2 ubiquitin-protein ligase inhibitor program, whole-cell format, luminescence detection, 384-well microplate (AID 1394); type: functional;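 also: MDM2 E3 inhibitors raise luminescence so EC50 is for signal enhancement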
Chain of E3 ubiquitin-protein ligase Mdm2 (Q00987 whole entry): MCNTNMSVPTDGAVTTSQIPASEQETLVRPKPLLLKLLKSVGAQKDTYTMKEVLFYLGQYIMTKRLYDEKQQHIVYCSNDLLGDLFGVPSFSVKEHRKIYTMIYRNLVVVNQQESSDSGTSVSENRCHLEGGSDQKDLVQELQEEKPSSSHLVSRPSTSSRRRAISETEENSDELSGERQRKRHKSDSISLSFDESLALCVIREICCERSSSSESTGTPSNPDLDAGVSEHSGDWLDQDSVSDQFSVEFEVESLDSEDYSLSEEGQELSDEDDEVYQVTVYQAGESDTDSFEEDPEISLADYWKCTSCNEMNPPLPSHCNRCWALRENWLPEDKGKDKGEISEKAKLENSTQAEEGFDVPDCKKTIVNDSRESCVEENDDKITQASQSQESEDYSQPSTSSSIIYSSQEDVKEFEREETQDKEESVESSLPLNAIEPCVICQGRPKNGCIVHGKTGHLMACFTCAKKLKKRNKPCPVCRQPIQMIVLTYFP

[8] = fluconazole-exposed Candida albicans growth modulators – fluorescence, retest, confirmation (AID 2467); type: functional, cell-based
[9] = target: T2, Serine/threonine-protein phosphatase (Candida dubliniensis (strain CD36 / CBS 7987 / NCPF 3949 / NRRLY-17841) (Yeast), UniProt B9W6M3); test: blockers of CaCl2-induced CDRE-lacZ signaling – S. cerevisiae, luminescence, secondary, dose response (AID 2388); type: functional, cell-based;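 also: yeast reporter cells carrying a calcineurin-responsive lacZ construct stimulated with calcium chloride; luminescent beta-galactosidase reporter signal in whole cells rather than isolated phosphatase activity; potency for inhibition where a drop in reporter signal means calcineurin blockade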
T2 sequence (B9W6M3 whole entry): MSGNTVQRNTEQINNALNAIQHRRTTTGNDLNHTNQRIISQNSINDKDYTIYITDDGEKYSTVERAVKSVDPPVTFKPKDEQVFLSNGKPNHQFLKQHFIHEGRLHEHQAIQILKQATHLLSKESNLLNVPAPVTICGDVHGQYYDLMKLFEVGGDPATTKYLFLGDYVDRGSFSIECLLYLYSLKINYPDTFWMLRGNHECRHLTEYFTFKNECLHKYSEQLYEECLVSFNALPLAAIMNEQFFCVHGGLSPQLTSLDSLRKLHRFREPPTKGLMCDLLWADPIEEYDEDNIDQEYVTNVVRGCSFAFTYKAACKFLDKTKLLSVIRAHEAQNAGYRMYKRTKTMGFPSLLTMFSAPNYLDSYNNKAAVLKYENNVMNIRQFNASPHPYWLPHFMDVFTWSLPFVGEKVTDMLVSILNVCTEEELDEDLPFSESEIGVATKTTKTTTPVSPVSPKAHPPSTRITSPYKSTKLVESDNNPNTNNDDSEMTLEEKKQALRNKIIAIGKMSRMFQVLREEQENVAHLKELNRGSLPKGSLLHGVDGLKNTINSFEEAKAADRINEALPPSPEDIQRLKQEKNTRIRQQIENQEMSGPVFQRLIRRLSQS

Estrogen receptor = target: T3, Estrogen receptor (Homo sapiens, UniProt P03372); test: ERα coactivator recruitment enhancers – biochemical, TR-FRET, ERα LBD, dose response (AID 737)
T3 sequence (P03372 whole entry): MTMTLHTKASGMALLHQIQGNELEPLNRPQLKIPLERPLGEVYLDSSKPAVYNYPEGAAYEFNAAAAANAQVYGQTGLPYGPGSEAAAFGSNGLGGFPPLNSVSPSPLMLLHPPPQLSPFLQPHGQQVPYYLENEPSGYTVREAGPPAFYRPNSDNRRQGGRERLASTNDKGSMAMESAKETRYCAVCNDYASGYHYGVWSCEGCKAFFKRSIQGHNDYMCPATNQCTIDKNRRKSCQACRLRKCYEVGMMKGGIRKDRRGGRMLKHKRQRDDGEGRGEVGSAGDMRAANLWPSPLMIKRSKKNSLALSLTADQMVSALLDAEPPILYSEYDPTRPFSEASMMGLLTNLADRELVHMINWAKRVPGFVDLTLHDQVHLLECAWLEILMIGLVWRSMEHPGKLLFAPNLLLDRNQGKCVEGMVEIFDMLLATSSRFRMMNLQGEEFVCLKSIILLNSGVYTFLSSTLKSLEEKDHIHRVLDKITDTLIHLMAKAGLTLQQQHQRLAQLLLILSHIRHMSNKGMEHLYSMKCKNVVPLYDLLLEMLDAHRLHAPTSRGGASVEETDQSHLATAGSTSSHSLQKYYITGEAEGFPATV

HEK293 [10] = test: EBV LMP1 TES2 canonical NF-kB signalling blockers – cell-based, HEK293, luciferase, cherry-pick, dose response (AID 588343); type: functional; details: Homo sapiens
[11] = target: Heat shock protein HSP 90-alpha (Homo sapiens, UniProt P07900); type: functional, organism-based
[12] = target: T2, Serine/threonine-protein phosphatase; test: Fluorescence Cell-Based Secondary Assay to Identify Inhibitors of Calcineurin. [Related pubchem assays (depositor defined):AID1979, AID2007]; type: functional
INS1 = test: INS-1E survival protection against cytokine death – cell-based, luminescence, retest, dose response (AID 449756); type: functional; details: Rattus norvegicus;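 also: cell death triggered by IL-1 beta plus TNF-alpha plus IFN-gamma mixture; protective hits raise ATP signal compared with cytokine alone wells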
[13] = target: ATP-dependent molecular chaperone HSP82 (Candida albicans (strain WO-1) (Yeast), UniProt C4YTQ8); test: steroid-induced GRE reporter decrease in yeast – S. cerevisiae, luminescence, Hsp90 inhibitor project, dose response (AID 2400); type: functional, cell-based;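 also: beta-galactosidase luminescence from glucocorticoid response element reporter as proxy for Hsp90 function; inhibitor potency where signal loss means Hsp90 inhibition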
Chain of ATP-dependent molecular chaperone HSP82 (C4YTQ8 whole entry): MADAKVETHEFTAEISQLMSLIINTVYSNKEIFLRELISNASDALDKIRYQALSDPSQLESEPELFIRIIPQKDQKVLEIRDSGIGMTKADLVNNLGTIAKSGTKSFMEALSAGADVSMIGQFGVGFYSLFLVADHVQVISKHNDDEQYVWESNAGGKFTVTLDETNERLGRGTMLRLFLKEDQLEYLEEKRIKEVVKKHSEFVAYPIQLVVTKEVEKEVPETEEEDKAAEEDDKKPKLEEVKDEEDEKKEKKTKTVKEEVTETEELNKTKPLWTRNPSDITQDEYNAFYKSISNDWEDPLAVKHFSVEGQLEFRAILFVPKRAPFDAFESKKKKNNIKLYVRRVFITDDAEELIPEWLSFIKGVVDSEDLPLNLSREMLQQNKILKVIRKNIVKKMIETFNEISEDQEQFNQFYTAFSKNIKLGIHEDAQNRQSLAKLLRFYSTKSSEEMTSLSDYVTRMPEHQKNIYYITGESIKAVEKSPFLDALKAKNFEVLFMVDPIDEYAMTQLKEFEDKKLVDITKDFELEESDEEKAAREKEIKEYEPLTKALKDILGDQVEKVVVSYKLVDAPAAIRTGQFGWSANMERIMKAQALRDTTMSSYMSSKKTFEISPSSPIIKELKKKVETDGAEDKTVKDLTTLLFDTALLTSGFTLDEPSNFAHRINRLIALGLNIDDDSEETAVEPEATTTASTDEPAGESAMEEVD

[14] = reduction of Shn3 3'UTR-driven luciferase in osteoblasts – cell-based, Clone20 osteoblasts, firefly luciferase, cherry-picked, dose response (AID 624132); type: functional;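 also: firefly luciferase luminescence from reporter carrying the Shn3 3'UTR in osteoblasts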
[15] = mammalian cell viability loss – Alamar Blue, dry powder, cytotoxicity control for antifungal single agent project, dose response (AID 602188); type: functional, cell-based
[16] = loss of viability in HepG2 cells – cell-based, CellTiter-Glo, cherry-picked, cytotoxicity control for Shn3 inhibitor project, dose response (AID 624134); type: functional
[17] = non-specific 3'UTR reporter inhibition in Clone20-Shn3RL – cell-based, Renilla luciferase, cherry-picked, counter-screen for Shn3 inhibitor project, dose response (AID 624133); type: functional

## Cc1cccc(N2C(=O)NC(=O)/C(=C/c3cc4c(cc3[N+](=O)[O-])OCO4)C2=O)c1
[1]
  EC50: > 99 µM (inactive)
[2]
  AC50: 45 µM (active)
[3]
  EC50: > 99 µM (inactive)

## CCOc1ccccc1NC(=O)CCc1nc(-c2ccc(C(C)(C)C)cc2)no1
Jurkat
  IC50: 1.02 µM (active)
HEK293 [4]
  IC50: 0.46 µM (active)
HEK293 [5]
  IC50: > 80 µM (inactive)

## O=C(Nc1nc(-c2ccccn2)cs1)c1ccc(Br)s1
[6]
  EC50: > 160 µM (inactive)
[7]
  EC50: 22.7 µM (not active)
[8]
  EC50: 1.81 µM (active)
[9]
  EC50: > 180 µM (inactive)
Estrogen receptor
  EC50: 24.5 µM (not active)
HEK293 [10]
  AC50: 0.637 µM (active)
[11]
  AC50: 1.83 µM (active)
[12]
  EC50: 15.7 µM (active)
INS1
  AC50: 1.03 µM (active)
[13]
  EC50: 4.31 µM (active)
[14]
  AC50: 1 µM (active)
[15]
  AC50: 0.991 µM (active)
[16]
  AC50: 3.78 µM (active)
[17]
  AC50: 0.743 µM (active)
